Tested on: capsaicin-sensitive sensory nerve
Assay: Capsaicin-induced Evans Blue pigment leakage into mouse bladder (capsaicin-sensitive sensory nerve inhibition)
Type: in vivo
Settings: for inhibition of capsaicin-sensitive sensory nerve (summary): female Balb/c mouse bladder, capsaicin stimulation
Procedure: A female Balb/c mouse (Japan SLC) which had been anesthetized by intraperitoneally administering 0.15 ml of 20% urethane was subjected to tracheal cannulation, using a polyethylene tube PE 50. A polyethylene tube PE 10 was inserted into the bladder via a urethra, and hydrochloride of ethyl (−)-2-[4-[2-[[(1S,2R)-2-hydroxy-2-(4-hydroxyphenyl)-1-methy lethyl]amino]ethyl]-2,5-dimethylphenoxy]acetate (to be referred to as “compound 1” hereinafter), which had been dissolved in physiological saline and 2 equivalents of sodium hydroxide to a concentration of 10 μM and further diluted to various concentrations with physiological saline, was injected through the tube. After 1 hour from the injection, a solution (10 ml/kg) of Evans Blue (30 mg/kg) and capsaicin (0.3 mg/kg) dissolved in physiological saline containing 0.1% DMSO and 0.1% Tween 80 was administered through caudal vein. Precisely 5 minutes after the administration, the animal was sacrificed by cervical vertebrae dislocation to extract the bladder. After removing urine and blood from the extracted bladder, wet weight of the bladder was measured, and the extracted bladder was put into each well of a 96 well microplate into which formamide had been dispensed in 150 μl portions in advance. After soaking the bladder overnight in formamide, the pigment in the bladder tissue was determined by measuring absorbance of 100 μl of the supernatant at a wavelength of 620 nm. In addition, the amount of the Evans Blue pigment per 1 mg bladder wet weight was calculated. In this connection, a mouse in which physiological saline was injected into the bladder and the Evans Blue solution containing no capsaicin was administered thereto was used as the normal control.
The results are shown in FIG. 1 by average value ± standard deviation. Inter-group significant difference between normal control group and capsaicin stimulation group was examined by student's t-test. Inter-group significant difference between compound 1 administration group and un-administration group was examined by a one dimensional analysis of variation and subsequent Dunnett's inter-multigroup comparison. A value of p<0.05 was regarded as significant.
The pigment in the bladder tissue was determined in the same manner as in Test Example 1, except that Tolterodine was used instead of the compound 1 and Hartman's solution was used instead of the physiological saline and 2 equivalents of sodium hydroxide. In this connection, a mouse in which Hartman's solution was injected into the bladder and the Evans Blue solution containing no capsaicin was administered thereto was used as the normal control.

[1] = female Balb/c mouse, injected into the bladder 1 hour before i.v. Evans Blue 30 mg/kg + capsaicin 0.3 mg/kg, various concentrations, vs solvent group

| SMILES | inhibition of capsaicin-sensitive sensory nerve (summary) | amount of Evans Blue pigment in bladder tissue [1] | amount of Evans Blue pigment in bladder tissue (1 μM administration group, injected into the bladder, p<0.01 vs solvent group) |
| --- | --- | --- | --- |
| Cc1ccc(O)c([C@H](CCN(C(C)C)C(C)C)c2ccccc2)c1 [Tolterodine, reference compound] | did not inhibit the capsaicin-sensitive sensory nerve | Significant difference in the amount of Evans Blue pigment was not found | – |
| CCOC(=O)COc1cc(C)c(CCN[C@@H](C)[C@H](O)c2ccc(O)cc2)cc1C [compound 1, ethyl (−)-2-[4-[2-[[(1S,2R)-2-hydroxy-2-(4-hydroxyphenyl)-1-methylethyl]amino]ethyl]-2,5-dimethylphenoxy]acetate] | markedly inhibited the capsaicin-sensitive sensory nerve | concentration-dependently reduced the amount of Evans Blue pigment | significantly reduced |
